Source: patent US5972894A, “Peptides having potassium channel opener activity” (Cytran, Inc., priority 1997, dated 1999)

Legend:
[1] = test system: rats; experiment: CPK activity in blood serum 1 hour after coronary occlusion; assay type: in vivo; conditions: dose printed --; i.v.; 1 hour after coronary occlusion
Procedure: White random-bred male rats weighing approximately 200 g were anesthetized using a light ether administration and then immobilized and artificially ventilated. […] Immediately after ligation, a test substance, positive, control substance, or negative control substance (described below) was administered to a rat through a catheterized femoral vein. Each dose of each test substance or positive or negative control substance was administered to an experimental or control group of 9 test rats. In this study, GE and VT served as test substances, propranolol served as the positive control substance, and physiological saline served as the negative control substance. Each test rat in an experimental group was given a dose of either 0.1, 1.0, or 10.0 milligram GE per kilogram of body weight of the subject animal (mg/kg) or 0.1, 1.0, or 10.0 milligram VT per kilogram of body weight of the animal. Each animal of the positive control group received an intravenous dose of 0.5 mg of β-adrenergic blocking agent, propranolol (Obzidan, Germed, Germany) per kilogram of body weight. Propranolol is commonly used to manage cardiac arrhythmia and there is some evidence that the agent may reduce the extent of ischemic damage to the heart. […] Each animal of the negative control group received physiological saline.
One hour after initiation of the coronary artery occlusion, each test animal was sacrificed, its blood was collected, and the CPK activity in its blood serum was measured. CPK activity was determined by using a standard biochemical method, such as that commercially available from the Lachema Company (Czechia) in its test kit, and by following the manufacturer's process instructions included in the package insert.
As a supplementary control for the possible trauma caused by the surgical procedure, a group of 9 sham-operated rats was included in the study. These test animals were subjected to chest dissection, but not to coronary artery occlusion. These "sham-operated" animals were not treated with any test or control substances and were euthanized 1 hour after surgery. Their blood was then collected for determination of CPK activity.

[2] = test system: rats; experiment: Early ischemic myocardial arrhythmias after coronary artery ligation; assay type: in vivo; conditions: 0.5 mg/kg i.v.; 30 min after coronary occlusion
Procedure: White random-bred male rats weighing 200 g were given light ether anesthesia and were then immobilized and artificially ventilated. The descending branch of the left coronary artery of each rat was ligated. Immediately following ligation, a test or control substance was administered to each rat through the catheterized femoral vein, and an ECG recording was initiated (standard lead II) and maintained for the next 30 minutes.
GE and VT served as test substances and were administered to animals in the respective test groups at doses of 0.1, 1.0, and 10.0 mg/kg. The β-adrenergic blocking agent, propranolol (Obzidan, Germed, Germany), served as the positive control substance and was administered intravenously to each animal in the positive control group at a dose of 0.5 mg/kg. Physiological saline served as the negative control substance and was administered intravenously to animals in the negative control group. Each dose of each test or control substance was tested separately on a group of nine animals.
The following parameters were evaluated based upon the ECG recordings: (i) the number of ventricular extrasystoles that occurred within a 30-minute observation period following coronary occlusion; (ii) the overall cumulative duration of ventricular tachycardias (i.e., the summation of duration of individual paroxysmal ventricular rhythm disturbances in seconds) occurring within the 30-minute observation period; and (iii) the overall duration (in seconds) of the ventricular fibrillations occurring within the 30-minute observation period. The data were processed electronically and statistical comparisons were made between the values obtained from the animals in the experimental test groups and those in the different respective control groups.

## CC(C)NCC(O)COc1cccc2ccccc12 (stereo not drawn) [Propranolol, propranolol, reference compound]
[1]
  CPK Activity in blood serum: 0.170 (±0.011) mcCat/L
[2]
  Number of Ventricular Extrasystoles: 61.22
  Overall Duration of Ventricular Tachycardia: 56.74 s
